In the test the test system is C. difficile strain 630. To be noted: BDM without glucose.

Here are results for one compound from patent US11865146B2 (priority 2015, dated 2024).

Protocol: All strains for this study were maintained inside an anaerobic growth chamber with a gas mixture of 75% N2/20% CO2/5% H2 (Coy Lab Products, Grass Lake, MI). Liquid and solid growth media was allowed to reduce in the anaerobic chamber for a minimum of 24 hours prior to use. For transfer out of the chamber, liquid stocks were sealed in sterile, gas-tight crimp cap glass vials. C. difficile strain 630 was maintained at 37° C. on Clostridium difficile Moxalactam Norfloxacin (CDMN) blood agar plates (Aspinall et al. 1992 J Clin Pathol. 45:812-814), in Reinforced Clostridial Medium (RCM) broth (Difco DF1808173), or in Basal Defined Medium (BDM) (Karasawa et al. 1995 Microbiology. 141:371-375) broth. C. difficile amino acid (AA) utilization was assessed using modified BDM containing ½ or ¼ of the standard AA content. Proline utilization was assessed in modified BDM lacking glucose and proline. Bacterial growth rates were assessed using a BioTek Eon microplate spectrophotometer (BioTek, Winooski, VT).

Take `O=C(O)[C@@H]1CCCN1` [proline]: the “C. difficile growth in the absence of proline” value is reported as “unable to grow”.
